# Experimental data: ChEMBL document CHEMBL1144982, “Ganglioside GM1 mimics: lipophilic substituents improve affinity for cholera toxin” (Bioorg Med Chem Lett, 2003)
# Test: Dissociation constant by non-linear regression analysis
# Type: physicochemical
structure (smiles),measurement,value
CC(=O)N[C@@H]1[C@H](O[C@H]2C[C@H](C(=O)OC(C)(C)C)[C@@H](C(=O)OC(C)(C)C)C[C@H]2O[C@H](Cc2ccccc2)C(=O)O)O[C@@H](CO)[C@H](O)[C@@H]1O[C@@H]1O[C@@H](CO)[C@H](O)[C@H](O)[C@@H]1O,Kd,10 µM
CC(=O)N[C@@H]1[C@H](O[C@H]2C[C@H](C(=O)OC(C)(C)C)[C@@H](C(=O)OC(C)(C)C)C[C@H]2O[C@H](CC2CCCCC2)C(=O)O)O[C@@H](CO)[C@H](O)[C@@H]1O[C@@H]1O[C@@H](CO)[C@H](O)[C@H](O)[C@@H]1O,Kd,45 µM
CC(=O)N[C@@H]1[C@H](O[C@H]2C[C@H](C(=O)OC(C)(C)C)[C@@H](C(=O)OC(C)(C)C)C[C@H]2O[C@H](C)C(=O)O)O[C@@H](CO)[C@H](O)[C@@H]1O[C@@H]1O[C@@H](CO)[C@H](O)[C@H](O)[C@@H]1O,Kd,190 µM
